Holding throughout (format): in vivo
Data set [1] relates to Triticum aestivum (TRZAS). Nature of the data set: Pre-emergence effects on crop plants, section D (Table D2). Conditions: visual grading after ca. 3 weeks. In a few lines:
(§1)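 Formulated compound (wettable powder or emulsifiable concentrate) was applied pre-emergence to the soil surface at 320 g/ha or lower. Greenhouse-grown plants were rated visually for percent damage after ca. 3 weeks.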

The test system of data set [2] is Poa annua (POAAN). Kind of data set: Herbicidal post-emergence action, section B (Table B7). Conditions: visual rating about 3 weeks after treatment vs untreated controls. In a few lines:
(§2)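 Greenhouse post-emergence spray on one-leaf-stage plants (sown in sandy loam, 2 to 3 weeks old). WP/EC formulations in water + 0.5% additive, 600 liters per hectare. Read-out: visual % activity vs untreated, ~3 weeks after treatment; 100% = dead, 0% = as control.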

The test system of data set [3] is Setaria viridis (SETVI). Kind of data set: Herbicidal post-emergence action, section B (Table B8). Conditions: application rate 1280 g/ha, visual rating about 3 weeks after treatment vs untreated controls; for pest or weed control at 1280 g/ha: Setaria viridis, post-emergence, 504 h, read-out: post-emergence activity against SETVI in %. In a few lines: as §2
The test system of data set [4] is Amaranthus retroflexus (AMARE). Kind of data set: Herbicidal post-emergence action, section B (Table B11). Conditions: visual rating about 3 weeks after treatment vs untreated controls; for pest or weed control at 320 g/ha: application rate 320 g/ha. In a few lines: as §2
Data set [5] has as its system Poa annua (POAAN). Nature of the data set: Herbicidal pre-emergence action, section A (Table A7). Conditions: visual grading after ca. 3 weeks vs untreated controls. In a few lines: (§3)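 Seeds sown in sandy loam and covered with soil; compounds formulated as WP or EC were applied to the soil surface as aqueous suspension or emulsion with 0.5% additive at 600 l water/ha. Pots kept in greenhouse under optimum conditions; damage scored visually after ca. 3 weeks versus untreated controls (0–100%).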

For data set [6], the system named is Matricaria inodora (MATIN). Kind of data set: Herbicidal pre-emergence action, section C (Table C6). The settings on record: application rate 320 g/ha, visual grading after ca. 3 weeks; for pest or weed control at 320 g/ha: Tripleurospermum inodorum, pre-emergence, 504 h, read-out: pre-emergence activity against MATIN in %. The source says:
(§4) Seeds of mono- and dicotyledonous weed plants and crop plants were sown, in plastic or organic planting pots, in sandy loam and covered with soil. The compounds according to the invention, formulated in the form of wettable powders (WP) or as emulsifiable concentrates (EC), were applied to the surface of the covering soil as aqueous suspension or emulsion, with the addition of 0.5% of an additive, at an application rate of 600 l of water/ha (converted). Following treatment, the pots were placed in a greenhouse and kept under optimum growth conditions for the test plants. The visual grading of the damage to the test plants was carried out after ca. 3 weeks in comparison to untreated controls (herbicidal effect in percent (%): 100% effect=plants have died off, 0% effect=as control plants).

Data set [7] concerns Lolium rigidum (LOLRI). Kind of data set: Herbicidal pre-emergence action, section A (Table A5). Conditions: visual grading after ca. 3 weeks vs untreated controls. In a few lines:
as §3

The subject of data set [8] is Glycine max (GLXMA). Nature of the data set: Post-emergence effects on crop plants, section F (Table F4). The settings on record: application rate 80 g/ha; for post-emergence activity against GLXMA in %: crop plant damage; for percent crop plant damage at 80 g/ha: Glycine max, 504 h, read-out: post-emergence activity against GLXMA in %. In a few lines: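 Crop seeds were sown in sandy loam in pots and greenhouse-grown; at the single-leaf stage, 2 to 3 weeks after sowing, plants were sprayed with WP or EC formulations plus 0.5% additive at 600 l water/ha, 320 g/ha or below. Damage was scored visually about 3 weeks later versus untreated controls (0–100%).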

Data set [9] relates to Veronica persica (VERPE). Kind of data set: Herbicidal pre-emergence action, section C (Table C10). The settings on record: Veronica persica, pre-emergence, 504 h, visual grading after ca. 3 weeks, read-out: pre-emergence activity against VERPE in %; for pest or weed control at 320 g/ha: application rate 320 g/ha; for pest or weed control at 80 g/ha: application rate 80 g/ha.
Excerpt: as §4

Data set [10] relates to Zea mays (ZEAMX). Nature of the data set: Pre-emergence effects on crop plants, section D (Table D1). Conditions: visual grading after ca. 3 weeks. In a few lines:
as §1

The mark [11] stands for this setting: Amaranthus retroflexus, post-emergence, 504 h, read-out: post-emergence activity against AMARE in %.
The mark [12] stands for this setting: Poa annua, pre-emergence, 504 h, application rate 1280 g/ha, read-out: pre-emergence activity against POAAN in %.
The mark [13] stands for this setting: Lolium rigidum, pre-emergence, 504 h, application rate 320 g/ha, read-out: pre-emergence activity against LOLRI in %.
Where [14] appears, read: Poa annua, post-emergence, 504 h, application rate 320 g/ha, read-out: post-emergence activity against POAAN in %.

For `COC(=O)CCC(=O)N1CSc2cc(Cl)c(-c3ccccc3F)nc21` [Example I-003], the “pre-emergence activity against TRZAS in % (crop plant damage)” value in data set [1] (application rate 80 g/ha) was determined as 20%. Also, in data set [2] (application rate 320 g/ha), the “post-emergence activity against POAAN in %” value amounted to 100%. For the same molecule, the “post-emergence activity against SETVI in %” value in [3] worked out at 90%. The “post-emergence activity against AMARE in %” value in data set [4] (application rate 1280 g/ha) came out at 90%. Moreover, the “pre-emergence activity against POAAN in %” value in data set [5] (application rate 1280 g/ha) is listed as 100%. In addition, in data set [6], the “pre-emergence activity against MATIN in %” value amounted to 80%. Besides, the “pre-emergence activity against LOLRI in %” value in data set [7] (application rate 320 g/ha) is recorded as 100%. Also, in data set [8], the “post-emergence activity against GLXMA in %” value was 0%.
For the molecule `Fc1ccccc1-c1nc2c(cc1Br)SCN2` [Example I-001, 6-bromo-5-(2-fluorophenyl)-2,3-dihydro[1,3]thiazolo[4,5-b]pyridine], the figures for the pest or weed control at 320 g/ha in [9] and in data set [6] were 80% and 90%, respectively. Moreover, the “pre-emergence activity against ZEAMX in % (crop plant damage)” value in data set [10] (application rate 80 g/ha) was found to be 10%. In addition, in data set [8], the percent crop plant damage at 80 g/ha was determined as 20%.
As to `Cc1cc2c(nc1-c1cccc(F)c1F)NCS2` [Example I-029, 5-(2,3-difluorophenyl)-6-methyl-2,3-dihydro[1,3]thiazolo[4,5-b]pyridine], the pest or weed control at 320 g/ha in [9] worked out at 80%; in data set [4] (setting [11]), 90%; in data set [6], 80%; in [7] (setting [13]), 100%. Moreover, the pest or weed control at 1280 g/ha was found to be 90% in data set [2] (Poa annua, post-emergence, 504 h, application rate 1280 g/ha, read-out: post-emergence activity against POAAN in %); 90% in data set [3]; 100% in [5] (setting [12]).
Regarding `BN1CSc2cc(Br)c(-c3ccccc3C)nc21` [Example I-011], the “post-emergence activity against POAAN in %” value in [2] (application rate 1280 g/ha) is on record as 90%. The “post-emergence activity against SETVI in %” value in data set [3] was determined as 90%. The “post-emergence activity against AMARE in %” value in data set [4] (application rate 1280 g/ha) is 90%. For the same molecule, in [5] (application rate 320 g/ha), the “pre-emergence activity against POAAN in %” value turned out to be 100%. Moreover, in [10] (application rate 320 g/ha), the “pre-emergence activity against ZEAMX in % (crop plant damage)” value turned out to be 10%. In data set [7] (application rate 320 g/ha), the “pre-emergence activity against LOLRI in %” value is on record as 100%.
For `CCS(=O)(=O)N1C[S+]([O-])c2cc(C)c(-c3ccccc3C)nc21` (stereo not shown) [Example I-074], in data set [1] (application rate 80 g/ha), the “pre-emergence activity against TRZAS in % (crop plant damage)” value amounted to 0%. Moreover, the pest or weed control at 80 g/ha in data set [9] was determined as 80%. For the same molecule, the pest or weed control at 320 g/ha was 90% in data set [2] (setting [14]); 100% in data set [5] (Poa annua, pre-emergence, 504 h, application rate 320 g/ha, read-out: pre-emergence activity against POAAN in %); 100% in data set [7] (setting [13]). The pest or weed control at 1280 g/ha in [3] stood at 90%; in data set [4] (Amaranthus retroflexus, post-emergence, 504 h, application rate 1280 g/ha, read-out: post-emergence activity against AMARE in %), 90%. Besides, the “pre-emergence activity against ZEAMX in % (crop plant damage)” value in [10] (application rate 80 g/ha) is 0%. Besides, the percent crop plant damage at 80 g/ha in data set [8] was determined as 0%.
Consider `CCc1ccccc1-c1nc2c(cc1C)[S+]([O-])CN2` (stereo not shown) [Example I-047], for which the “pre-emergence activity against TRZAS in % (crop plant damage)” value in [1] (application rate 320 g/ha) was determined as 10%. Also, the pest or weed control at 80 g/ha in data set [9] amounted to 80%. Moreover, the pest or weed control at 320 g/ha in data set [2] (setting [14]) and in [4] (setting [11]) was 90% each time. Further, the pest or weed control at 1280 g/ha in [5] (setting [12]) was 100%. Moreover, the “pre-emergence activity against ZEAMX in % (crop plant damage)” value in data set [10] (application rate 320 g/ha) came out at 20%. In data set [8], the percent crop plant damage at 80 g/ha is 0%.
With `Clc1ccccc1-c1nc2c(cc1Br)SCN2` [Example I-041, 6-bromo-5-(2-chlorophenyl)-2,3-dihydro[1,3]thiazolo[4,5-b]pyridine], the “pre-emergence activity against TRZAS in % (crop plant damage)” value in [1] (application rate 320 g/ha) was 20%. Also, the pest or weed control at 320 g/ha in [2] (setting [14]) and in data set [4] (setting [11]) was 90% in each case. Further, the pest or weed control at 1280 g/ha in data set [3] was found to be 90%; in data set [5] (setting [12]), 100%; in data set [7] (Lolium rigidum, pre-emergence, 504 h, application rate 1280 g/ha, read-out: pre-emergence activity against LOLRI in %) it was 100%. The “pre-emergence activity against ZEAMX in % (crop plant damage)” value in data set [10] (application rate 80 g/ha) is 0%. In [8], the percent crop plant damage at 80 g/ha amounted to 0%.
Turning to `Cc1cc2c(nc1-c1cccc(C)c1F)NCS2` [Example I-113], in [1] (application rate 320 g/ha), the “pre-emergence activity against TRZAS in % (crop plant damage)” value worked out at 10%. Moreover, the “post-emergence activity against POAAN in %” value in data set [2] (application rate 320 g/ha) was found to be 90%. The “pre-emergence activity against POAAN in %” value in [5] (application rate 1280 g/ha) is 100%. Besides, the “pre-emergence activity against ZEAMX in % (crop plant damage)” value in [10] (application rate 320 g/ha) came to 0%. Besides, the “pre-emergence activity against LOLRI in %” value in data set [7] (application rate 1280 g/ha) is reported as 100%. Also, in data set [8], the “post-emergence activity against GLXMA in %” value was determined as 0%.

The record behind these values is US20240381872A1, “SUBSTITUTED 2,3-DIHYDRO[1,3]THIAZOLO[4,5-B]PYRIDINES, SALTS THEREOF AND THEIR USE AS HERBICIDALLY ACTIVE SUBSTANCES” (BAYER AKTIENGESELLSCHAFT, priority 2021, published 2024).
